Key:
[1] = system: Puccinia triticina; assay: Wheat brown rust (PUCCRT) disease control on wheat seedlings; assay type: in vivo; design: key to PUCCRT 3DC, HV activity at 100 ppm (% control rating) / PUCCRT disease control, 3DC / PUCCRT 1DP disease control rating, HV activity / PUCCRT 3DC disease control rating, HV activity / PUCCRT 3DC, LV activity at 125.1 g/H (% Control rating) / PUCCRT 1DP, LV activity at 125.1 g/H (% Control rating) / PUCCRT 3DC disease control rating, LV activity at 125.1 g/H / PUCCRT 1DP disease control rating, LV activity at 125.1 g/H / PUCCRT 3DC disease control rating, HV activity at 100 ppm / PUCCRT 1DP disease control rating, HV activity at 100 ppm / HV activity at 100 ppm PUCCRT 3DC (disease control rating) / LV activity at 125.1 g/H PUCCRT 1DP (disease control rating) / LV activity at 125.1 g/H PUCCRT 3DC (disease control rating): A: > 80; B: ≤ 80; C: Not Tested; D: No Activity Observed in the Reported Assay; settings: for PUCCRT 1DP disease control rating, HV activity at 100 ppm / PUCCRT 3DC disease control rating, HV activity at 100 ppm: high volume application; for PUCCRT 1DP disease control rating, HV activity at 100 ppm / PUCCRT 1DP disease control rating, LV activity at 125.1 g/H: 1 day protectant; for PUCCRT 3DC disease control rating, HV activity at 100 ppm / PUCCRT 3DC disease control rating, LV activity at 125.1 g/H: 3 day curative
[2] = system: Zymoseptoria tritici; assay: Leaf blotch of wheat (SEPTTR) disease control on wheat seedlings; assay type: in vivo; design: key to SEPTTR 1DP, HV activity at 100 ppm (% control rating) / SEPTTR 3DC, HV activity at 100 ppm (% control rating) / SEPTTR disease control, 1DP / SEPTTR disease control, 3DC / SEPTTR 1DP disease control rating, HV activity / SEPTTR 3DC disease control rating, HV activity / SEPTTR 3DC, LV activity at 125.1 g/H (% Control rating) / SEPTTR 1DP, LV activity at 125.1 g/H (% Control rating) / SEPTTR 1DP disease control rating, LV activity at 125.1 g/H / SEPTTR 3DC disease control rating, LV activity at 125.1 g/H / SEPTTR 3DC disease control rating, HV activity at 100 ppm / SEPTTR 1DP disease control rating, HV activity at 100 ppm / HV activity at 100 ppm SEPTTR 3DC (disease control rating) / HV activity at 100 ppm SEPTTR 1DP (disease control rating) / LV activity at 125.1 g/H SEPTTR 1DP (disease control rating) / LV activity at 125.1 g/H SEPTTR 3DC (disease control rating): A: > 80; B: ≤ 80; C: Not Tested; D: No Activity Observed in the Reported Assay; settings: for SEPTTR 1DP disease control rating, HV activity at 100 ppm / SEPTTR 3DC disease control rating, HV activity at 100 ppm: high volume application; for SEPTTR 1DP disease control rating, HV activity at 100 ppm / SEPTTR 1DP disease control rating, LV activity at 125.1 g/H: 1 day protectant; for SEPTTR 3DC disease control rating, HV activity at 100 ppm / SEPTTR 3DC disease control rating, LV activity at 125.1 g/H: 3 day curative
[3] = low volume application, 125.1 g/H

SMILES	PUCCRT 1DP disease control rating, HV activity at 100 ppm [1]	PUCCRT 3DC disease control rating, HV activity at 100 ppm [1]	SEPTTR 1DP disease control rating, HV activity at 100 ppm [2]	SEPTTR 3DC disease control rating, HV activity at 100 ppm [2]	other results
COc1ccnc(C(=O)NC(C)C(=O)OC(C)C(Oc2ccc(F)cc2)c2ccccc2)c1O (stereo not drawn) [Cmpd 837]	A (> 80)	A (> 80)	A (> 80)	A (> 80)	–
COc1ccnc(C(=O)NC(C)C(=O)OC(C(C)C)C(Oc2ccccc2)C(C)C)c1OCOC(C)=O (stereo not drawn) [Cmpd 1094]	–	–	–	–	LV activity at 125.1 g/H PUCCRT 1DP (disease control rating) ([1]; low volume application, 125.1 g/H, 1 Day Protectant, wheat brown rust): D; LV activity at 125.1 g/H PUCCRT 3DC (disease control rating) ([1]; low volume application, 125.1 g/H, 3 Day Curative, wheat brown rust): D; LV activity at 125.1 g/H SEPTTR 1DP (disease control rating) ([2]; low volume application, 125.1 g/H, 1 Day Protectant, wheat leaf blotch): D; LV activity at 125.1 g/H SEPTTR 3DC (disease control rating) ([2]; low volume application, 125.1 g/H, 3 Day Curative, wheat leaf blotch): D
COc1ccnc(C(=O)NC(C)C(=O)OC(C)C(Oc2ccccc2)c2nccs2)c1O (mixture of isomers) [Cmpd 808]	A (> 80)	B (≤ 80)	B (≤ 80)	D	–
COc1ccnc(C(=O)N[C@@H](C)C(=O)O[C@@H](C)[C@H](OCC2CC2)C2CCCC2)c1O [Cmpd 845, (S)-(1R,2S)-1-cyclopentyl-1-(cyclopropyl-methoxy)propan-2-yl-2-(3-hydroxy-4-methoxypicolinamido)propanoate]	A (> 80)	A (> 80)	B (≤ 80)	B (≤ 80)	–
COc1ccnc(C(=O)NC(C(=O)OC(C)C(Oc2ccccc2)C(C)C)C(F)(F)F)c1O (mixture of isomers) [Cmpd 1018]	A (> 80)	A (> 80)	A (> 80)	D	–
CCC(CC)[C@@H](Oc1ccccc1Cl)[C@H](C)OC(=O)[C@@H](NC(=O)c1nccc(OC)c1OC(C)=O)C(C)C [Cmpd 662]	–	–	–	–	PUCCRT 1DP disease control rating, LV activity at 125.1 g/H [1, 3]: A (> 80); PUCCRT 3DC disease control rating, LV activity at 125.1 g/H [1, 3]: B (≤ 80); SEPTTR 1DP disease control rating, LV activity at 125.1 g/H [2, 3]: D; SEPTTR 3DC disease control rating, LV activity at 125.1 g/H [2, 3]: B (≤ 80)
COc1ccnc(C(=O)NC(C)C(=O)OC(C)C(Oc2ccccc2)C2CCCCC2)c1O (stereo not drawn) [Cmpd 836]	A (> 80)	A (> 80)	A (> 80)	A (> 80)	–
CCC(CC)[C@@H](Oc1cccc(Cl)c1)[C@H](C)OC(=O)[C@@H](NC(=O)c1nccc(OC)c1O)C(C)C [Cmpd 406]	–	–	–	–	PUCCRT 1DP disease control rating, HV activity ([1]; HV application at 100 ppm, 1 Day Protectant, wheat brown rust): B (≤ 80); PUCCRT 3DC disease control rating, HV activity ([1]; HV application at 100 ppm, 3 Day Curative, wheat brown rust): B (≤ 80); SEPTTR 1DP disease control rating, HV activity ([2]; HV application at 100 ppm, 1 Day Protectant, wheat leaf blotch): B (≤ 80); SEPTTR 3DC disease control rating, HV activity ([2]; HV application at 100 ppm, 3 Day Curative, wheat leaf blotch): B (≤ 80)
CCC(CC)[C@H](Oc1cc(F)cc(Cl)c1)[C@H](C)OC(=O)[C@H](C)NC(=O)c1nccc(OC)c1OCOC(C)=O [Cmpd 672]	–	–	–	–	PUCCRT 1DP disease control rating, LV activity at 125.1 g/H [1, 3]: A (> 80); PUCCRT 3DC disease control rating, LV activity at 125.1 g/H [1, 3]: B (≤ 80); SEPTTR 1DP disease control rating, LV activity at 125.1 g/H [2, 3]: A (> 80); SEPTTR 3DC disease control rating, LV activity at 125.1 g/H [2, 3]: B (≤ 80)

Reference: patent US20180000085A1, “USE OF PICOLINAMIDE COMPOUNDS WITH FUNGICIDAL ACTIVITY” (DOW AGROSCIENCES LLC, priority 2014, published 2018)
